Reference: US9724352B2, “Pyrrolo[2,1-F[1,2,4]triazine compounds, preparation methods and applications thereof” (Shanghai Institute of Materia Medica, Chinese Academy of …, priority 2012, dated 2017)

How the values were obtained:
[1] = system: PI3K signaling in human rhabdomyosarcoma Rh30 cells; experiment: PI3K signaling after IGF-1 stimulation (Western blot), Rh30; assay type: cell-based; details: compound 1 h, IGF-1 10 minutes
Description: (§1) Rh30 and U87MG cells were seeded in 12-well plates at 2×10^5 cells/well. On the next day, cells were incubated in fresh serum-free culture media subjected to starvation for 24 hours. Cells were then treated with different concentrations of compound I-33 for 1 h. After stimulated with IGF-1 for 10 minutes, the lysed cells were collected, and 4×SDS loading buffer [200 mM Tris.Cl (pH 6.8), 400 mM DTT, 8% SDS (sodium dodecyl sulfate), 0.4% bromophenol blue, 40% glycerol] was added. The cell lysates were boiled for 10 minutes. Aliquot was loaded on polyacrylamide gel and electrophoresis was performed in Tris-glycine electrophoresis buffer (25 mM Tris, 250 mM glycine, 0.1% SDS) at 80-100 V for 2-2.5 hours. The proteins were transformed from gel to nitrocellulose filter membrane by using semidry method. The filter membrane was blocked with blocking solution containing 5% skim milk powder (5% skim milk powder, 20 mM Tris-HCl (pH 7.2-7.4), 150 mM NaCl, 0.1% (v/v) Tween20) in a shaker at room temperature for 2 hours. Then specific primary antibody was added and hybridized at 4° C. overnight. The membrane was washed by washing buffer [20 mM Tris-HCl (pH 7.2-7.4), 150 mM NaCl, 0.1% (v/v) Tween20] for three times at room temperature, 15 minutes each time. […]

[2] = system: human esophagus cancer KYSE 410 xenograft; experiment: Growth of KYSE 410 xenograft subcutaneously transplanted in nude mouse; assay type: in vivo; details: for Relative tumor proliferation rate T/C: 50 mg/kg p.o. once every day
Description: Well-developed tumors in nude mice were cut into 1.5 mm3 fragments and transplanted s.c. into the right flank of nude mice under sterile conditions. The diameters of subcutaneously transplanted tumours in nude mice were measured with a vernier calipe. When the tumour reached a volume 170 mm3, the mice were randomly assigned into two treatment groups: CYH33 50 mg/kg group or BYL-719 50 mg/kg group. Control groups were given the same amount of normal saline, and treatment groups received tested compounds (p.o). Compounds were administered orally once every day for 3 weeks. Evaluation index of antitumor activity was relative tumor proliferation rate T/C (%), the calculation formula of which was as follows: T/C (%)=(TRTV/CRTV)×100%, TRTV:RTV of treatment group; CRTV:RTV of negative control group.

[3] = system: PI3K signaling in human glioma U87MG cells; experiment: PI3K signaling after IGF-1 stimulation (Western blot), U87MG; assay type: cell-based; details: compound 1 h, IGF-1 10 minutes
Description: as §1

[4] = target: PI3Kα (Homo sapiens (Human), UniProt P42336); experiment: Inhibition on PI3K kinase activity (Kinase-Glo Plus luminescent assay); assay type: biochemical; details: 2 μM ATP, 1 hour at room temperature
Chain of PI3Kα (P42336 whole entry): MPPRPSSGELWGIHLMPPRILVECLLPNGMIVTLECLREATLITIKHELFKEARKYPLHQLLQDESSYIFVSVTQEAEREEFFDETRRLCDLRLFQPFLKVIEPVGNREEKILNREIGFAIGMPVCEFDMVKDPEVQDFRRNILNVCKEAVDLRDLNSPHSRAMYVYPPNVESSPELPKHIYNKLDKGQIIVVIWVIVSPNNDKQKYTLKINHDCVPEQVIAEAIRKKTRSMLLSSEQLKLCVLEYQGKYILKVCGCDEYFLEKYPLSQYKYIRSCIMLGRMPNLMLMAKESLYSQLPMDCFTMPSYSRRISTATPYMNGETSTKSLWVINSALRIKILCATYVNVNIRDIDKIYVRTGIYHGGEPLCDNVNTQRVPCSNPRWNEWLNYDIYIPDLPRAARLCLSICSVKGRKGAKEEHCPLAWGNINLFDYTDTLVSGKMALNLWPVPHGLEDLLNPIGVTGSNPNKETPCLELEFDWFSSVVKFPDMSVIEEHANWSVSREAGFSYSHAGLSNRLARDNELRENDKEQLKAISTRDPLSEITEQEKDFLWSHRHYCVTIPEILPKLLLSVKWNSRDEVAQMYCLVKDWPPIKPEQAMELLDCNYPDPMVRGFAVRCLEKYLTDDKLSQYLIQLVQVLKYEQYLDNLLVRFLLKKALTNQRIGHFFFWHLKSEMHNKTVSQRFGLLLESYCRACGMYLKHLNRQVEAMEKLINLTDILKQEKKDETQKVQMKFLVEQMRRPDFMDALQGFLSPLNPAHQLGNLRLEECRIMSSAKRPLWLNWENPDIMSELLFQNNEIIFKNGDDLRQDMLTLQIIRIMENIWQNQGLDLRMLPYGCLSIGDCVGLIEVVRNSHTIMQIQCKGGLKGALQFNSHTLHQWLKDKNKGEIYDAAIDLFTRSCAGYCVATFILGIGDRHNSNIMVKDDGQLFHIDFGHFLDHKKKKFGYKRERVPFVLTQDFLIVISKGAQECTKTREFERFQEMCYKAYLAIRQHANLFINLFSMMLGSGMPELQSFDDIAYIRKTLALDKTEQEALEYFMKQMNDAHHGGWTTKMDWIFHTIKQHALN
Chain of PI3Kα (P27986 whole entry partner): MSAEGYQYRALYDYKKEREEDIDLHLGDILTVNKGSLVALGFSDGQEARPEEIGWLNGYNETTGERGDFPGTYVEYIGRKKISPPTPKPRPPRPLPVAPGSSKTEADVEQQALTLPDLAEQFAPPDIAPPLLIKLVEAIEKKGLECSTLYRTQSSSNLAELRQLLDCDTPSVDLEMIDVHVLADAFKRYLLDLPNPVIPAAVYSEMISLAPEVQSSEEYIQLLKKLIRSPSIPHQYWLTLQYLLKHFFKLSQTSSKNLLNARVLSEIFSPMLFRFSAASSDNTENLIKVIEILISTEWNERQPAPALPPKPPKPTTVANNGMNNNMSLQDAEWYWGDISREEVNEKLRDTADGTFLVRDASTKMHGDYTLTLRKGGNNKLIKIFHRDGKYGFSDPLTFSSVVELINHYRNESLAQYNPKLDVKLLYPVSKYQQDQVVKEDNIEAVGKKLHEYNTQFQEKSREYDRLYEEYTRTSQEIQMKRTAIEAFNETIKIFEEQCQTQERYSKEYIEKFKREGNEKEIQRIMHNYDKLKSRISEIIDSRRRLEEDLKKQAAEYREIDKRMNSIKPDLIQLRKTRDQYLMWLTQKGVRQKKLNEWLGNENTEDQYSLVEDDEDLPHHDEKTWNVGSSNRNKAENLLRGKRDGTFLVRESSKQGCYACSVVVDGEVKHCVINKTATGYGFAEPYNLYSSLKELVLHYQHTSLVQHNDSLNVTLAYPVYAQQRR
Description: The activity of purified kinase was detected with Kinase-Glo® Plus kinase luminescent assay by measuring the amount of the remaining […] in the solution after the kinase reaction was completed. […] After reaction was performed for 1 hour at room temperature, 10 μL of Kinase Glo-Plus mixture was added and incubated for 1 hour to quench the reaction.

[5] = system: human rhabdomyosarcoma Rh30 cells; experiment: Proliferation of Rh30 cells (sulforhodamine B); assay type: cell-based; details: Homo sapiens, Rh30, 72 h; read-out: IC50 against proliferation of Rh30 cells
In short: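 Rh30 cells (3000/well) were treated after adherence with compound at 10, 3, 1, 0.3 or 0.1 μM for 72 h. TCA-fixed cells were stained with sulforhodamine B, dye solubilised in Tris buffer and OD read at 560 nm.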

[6] = system: colon cancer cells C-HCT-116; experiment: Proliferation of human cancer cell panel; assay type: cell-based; details: read-out: inhibitory activity on proliferation
Source text: (§2) I-30 and I-33 were selected to test their activity on the proliferation of human cancer cells originated from different tissue types.

[7] = system: O-SKOV-3; experiment: Proliferation of human cancer cell panel; assay type: cell-based; details: read-out: inhibitory activity on proliferation
Source text: as §2

[8] = system: LG-NCI-H460; experiment: Proliferation of human cancer cell panel; assay type: cell-based; details: read-out: inhibitory activity on proliferation
Source text: as §2

[9] = system: gastric cancer cells G-MKN-45; experiment: Proliferation of human cancer cell panel; assay type: cell-based; details: read-out: inhibitory activity on proliferation
Source text: as §2

[10] = system: LG-NCI-H23; experiment: Proliferation of human cancer cell panel; assay type: cell-based; details: read-out: inhibitory activity on proliferation
Source text: as §2

[11] = system: P-PC-3; experiment: Proliferation of human cancer cell panel; assay type: cell-based; details: read-out: inhibitory activity on proliferation
Source text: as §2

[12] = system: rhabdomyosarcoma cells S-RH30; experiment: Proliferation of human cancer cell panel; assay type: cell-based; details: read-out: inhibitory activity on proliferation
Source text: as §2

[13] = system: hepatoma cells L-BEL-7402; experiment: Proliferation of human cancer cell panel; assay type: cell-based; details: read-out: inhibitory activity on proliferation
Source text: as §2

[14] = system: B-BT474; experiment: Proliferation of human cancer cell panel; assay type: cell-based; details: read-out: inhibitory activity on proliferation
Source text: as §2

[15] = system: endometrial cancer cells E-RL95-2; experiment: Proliferation of human cancer cell panel; assay type: cell-based; details: read-out: inhibitory activity on proliferation
Source text: as §2

[16] = system: colorectal cancer cells C-LOVO; experiment: Proliferation of human cancer cell panel; assay type: cell-based; details: read-out: inhibitory activity on proliferation
Source text: as §2

[17] = system: KYSE150; experiment: Proliferation of human esophagus cancer cells; assay type: cell-based
Source text: (§3) Compounds BYL719 (shown below), CYH33 (compound I-33) and I-27 were selected to test their activity on the proliferation of 11 species of human esophagus cancer cells.
(§4) The results reported in FIG. 3 were the average GI50 value and SD value of three experiments. The results were arranged according to the GI50 value of CYH33.

[18] = system: KYSE140; experiment: Proliferation of human esophagus cancer cells; assay type: cell-based
Source text: as §3, §4

[19] = system: Detroit 562; experiment: Proliferation of human esophagus cancer cells; assay type: cell-based
Source text: as §3, §4

## COC(=O)Nc1cc(C(F)(F)F)c(-c2nc(N3CCOCC3)c3cc(CN4CCN(S(C)(=O)=O)CC4)cn3n2)cn1 [Compound I-33, Methyl (5-(6-((4-(methylsulfonyl)piperazin-1-yl)methyl)-4-morpholinopyrrolo[2,1-f][1,2,4]triazin-2-yl)-4-(trifluoromethyl)pyridin-2-yl)carbamate]
[1]
  transduction of PI3K signaling: significantly inhibited
[2]; 50 mg/kg p.o. every day for 3 weeks
  growth of KYSE 410 xenograft (in words): significantly slowed down
[2]; d0
  Relative tumor proliferation rate T/C: 100.00%
[2]; d3
  Relative tumor proliferation rate T/C: 65.56%
[2]; d7
  Relative tumor proliferation rate T/C: 30.11%
[2]; d10
  Relative tumor proliferation rate T/C: 25.23%
[2]; d14
  Relative tumor proliferation rate T/C: 13.79%
[2]; d17
  Relative tumor proliferation rate T/C: 10.51%
[2]; d21
  Relative tumor proliferation rate T/C: 9.13%
[3]
  transduction of PI3K signaling: significantly inhibited
[4]
  IC50: 2.84 nM
[5]
  IC50: 2520 nM
[6]
  IC50: 10000 nM
[7]
  IC50: 277 nM
[8]
  IC50: 1520 nM
[9]
  IC50: 3400 nM
[10]
  IC50: 730 nM
[11]
  IC50: 1580 nM
[12]
  IC50: 486 nM
[13]
  IC50: 4900 nM
[14]
  IC50: 62 nM
[15]
  IC50: 5300 nM
[16]
  IC50: 1330 nM
[17]; KYSE-150, KYSE150, 1st experiment
  GI50: 40 nM
[17]; KYSE-150, KYSE150, 2nd experiment
  GI50: 62 nM
[17]; KYSE-150, KYSE150, 3rd experiment
  GI50: 38 nM
[17]; KYSE-150, KYSE150, mean of three experiments
  GI50: 47 nM
[18]; KYSE-140, KYSE140, 1st experiment
  GI50: 484 nM
[18]; KYSE-140, KYSE140, 2nd experiment
  GI50: 804 nM
[18]; KYSE-140, KYSE140, 3rd experiment
  GI50: 492 nM
[18]; KYSE-140, KYSE140, mean of three experiments
  GI50: 593 nM
[19]; Detroit 562, Detroit 562, 1st experiment
  GI50: 718 nM
[19]; Detroit 562, Detroit 562, 2nd experiment
  GI50: 707 nM
[19]; Detroit 562, Detroit 562, 3rd experiment
  GI50: 769 nM
[19]; Detroit 562, Detroit 562, mean of three experiments
  GI50: 731 nM
